Experimental data reported in ChEMBL document CHEMBL4304808, “PROTAC Degradation of IRAK4 for the Treatment of Neurodegenerative and Cardiovascular Diseases” (ACS Med Chem Lett, 2019).

Tests used:
[1] = molecular target: T1, Interleukin-1 receptor-associated kinase 4 (Homo sapiens, UniProt Q9NWZ3); experiment: Inhibition of N-terminal GST-tagged human IRAK4 (2 to end residues) expressed in baculovirus infected Sf9 cells using Ser/Thr 7 peptide as substrate in presence of ATP after 1 hr by Z'-LYTE assay
T1 sequence (Q9NWZ3 whole entry): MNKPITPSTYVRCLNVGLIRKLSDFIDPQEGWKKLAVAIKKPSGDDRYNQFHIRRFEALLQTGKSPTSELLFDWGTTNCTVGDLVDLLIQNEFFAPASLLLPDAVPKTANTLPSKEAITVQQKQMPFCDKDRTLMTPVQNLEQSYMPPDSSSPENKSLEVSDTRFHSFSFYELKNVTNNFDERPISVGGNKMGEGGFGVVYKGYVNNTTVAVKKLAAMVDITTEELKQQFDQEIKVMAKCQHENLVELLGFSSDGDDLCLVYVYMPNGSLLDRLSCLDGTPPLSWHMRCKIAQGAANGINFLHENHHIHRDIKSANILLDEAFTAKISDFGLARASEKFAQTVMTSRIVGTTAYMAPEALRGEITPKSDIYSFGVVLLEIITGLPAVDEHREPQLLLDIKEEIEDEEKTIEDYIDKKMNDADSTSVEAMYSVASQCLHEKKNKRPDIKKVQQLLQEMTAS

[2] = molecular target: T2, Protein cereblon/Interleukin-1 receptor-associated kinase 4 (Homo sapiens, UniProt Q9NWZ3+Q96SW2); experiment: Protac activity at E3 ubiquitin ligase/IRAK4 in human MCF7 cells assessed as IRAK4 degradation after 24 hrs by Western blot analysis; assay type: cell-based
Target sequence in this assay (Q96SW2 whole entry, one chain of several): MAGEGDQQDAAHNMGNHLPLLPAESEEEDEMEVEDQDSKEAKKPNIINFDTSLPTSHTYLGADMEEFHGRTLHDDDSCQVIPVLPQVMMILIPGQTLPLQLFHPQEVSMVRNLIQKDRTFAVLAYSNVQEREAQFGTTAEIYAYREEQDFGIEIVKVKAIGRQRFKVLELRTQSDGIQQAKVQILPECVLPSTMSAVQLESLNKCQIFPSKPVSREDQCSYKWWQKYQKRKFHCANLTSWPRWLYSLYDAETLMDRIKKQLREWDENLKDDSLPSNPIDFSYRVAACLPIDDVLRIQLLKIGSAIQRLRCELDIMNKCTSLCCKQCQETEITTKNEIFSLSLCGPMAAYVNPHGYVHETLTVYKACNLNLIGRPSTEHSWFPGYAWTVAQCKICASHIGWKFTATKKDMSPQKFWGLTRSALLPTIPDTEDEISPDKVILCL

[3] = molecular target: T2, Protein cereblon/Interleukin-1 receptor-associated kinase 4; experiment: Protac activity at E3 ubiquitin ligase/IRAK4 in human MCF7 cells assessed as IRAK4 degradation after 24 hrs by Western blot analysis relative to control; assay type: cell-based
Target sequence in this assay (Q96SW2 whole entry, looked up, one chain of several): as the sequence (Q96SW2 whole entry, one chain of several) above

IC50 [1] | DC50 [2] | Emax [3] | Compound
< 30 nM | < 30 nM | > 70% | O=C1CCC(N2C(=O)c3ccc(N4CCC(CN5CCN(Cc6ccc7c(c6)nc(NC(=O)c6cccc(C(F)(F)F)c6)n7[C@H]6CC[C@@H](CO)CC6)CC5)CC4)cc3C2=O)C(=O)N1 (stereo not given in full)
< 30 nM | < 30 nM | > 50% | COc1cc2nn(C3CCN(CCOCCOc4ccc5c(c4)CN(C4CCC(=O)NC4=O)C5=O)CC3)cc2cc1NC(=O)c1cccc(C(F)(F)F)n1 (stereo not given)
< 30 nM | < 30 nM | > 70% | O=C1CCC(N2C(=O)c3ccc(OCCOCCOCCN4CCN(Cc5ccc6c(c5)nc(NC(=O)c5cccc(C(F)(F)F)c5)n6[C@H]5CC[C@@H](CO)CC5)CC4)cc3C2=O)C(=O)N1 (stereo not given in full)
< 30 nM | < 30 nM | > 50% | COc1cc2nn(C3CCN(CCOCCOc4ccc5c(c4)C(=O)N(C4CCC(=O)NC4=O)C5=O)CC3)cc2cc1NC(=O)c1cccc(C(F)(F)F)n1 (stereo not given)
< 30 nM | 30 to 100 nM | > 70% | O=C1CCC(N2C(=O)c3ccc(OC4CCC(CN5CCN(Cc6ccc7c(c6)nc(NC(=O)c6cccc(C(F)(F)F)c6)n7[C@H]6CC[C@@H](CO)CC6)CC5)CC4)cc3C2=O)C(=O)N1 (stereo not given in full)
